Consider 7 compounds from patent publication US10214492B2, “Heterocyclic inhibitors of MCT4” (Vettore, LLC, priority 2016, dated 2019).

Series [1] has as its target MCT4 (Homo sapiens (Human), UniProt O15427). Description: Assay 3: MCT4-mediated lactate transport in MDA-MB-231 breast cancer cells. It is filed as cell-based. To be noted: MDA-MB-231 cells; lactate transport. An outline of the steps:
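MDA-MB-231 cells loaded with BCECF-AM, 5 min at 37° C, washed and resuspended in Tyrode's Solution, pH 7.4. MCT4 lactate/proton symport followed as the intracellular pH change reported by BCECF fluorescence.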

Series [2] is described as follows: Metabolic stability in human liver microsomes (in vitro t1/2). It is filed as in vitro ADME. The settings on record: for half-life at 2 µM: human liver microsomes 0.5 mg/mL, 2 μM compound, read-out: Human microsome t1/2, min; for Human microsome % 60 min: human liver microsomes. The procedure: (§1) The following are assays that may be used to evaluate the metabolic stability of compounds of Formula (I) in human, rat, or mouse microsomes. The assays follow a common procedure recited below. 1. […] Two separated experiments were performed as follows. a) With NADPH: 10 μL of 20 mg/mL liver microsomes and 40 μL of 10 mM NADPH were added to the incubations. […] The final concentration of microsomes was 0.5 mg/mL. 3. The reaction was started with the addition of 4 μL of 200 μM control compound or test compound solutions. Verapamil was used as positive control in this study. The final concentration of test compound or control compound was 2 μM. 4. Aliquots of 50 μL were taken from the reaction solution at 0, 15, 30, 45 and 60 min. […] Samples were centrifuged at 3,220 g for 40 minutes. A 90 μL aliquot of the supernatant was mixed with 90 μL of ultra-pure H2O and then used for LC-MS/MS analysis. 5. Data analysis. All calculations were carried out using Microsoft Excel. Peak areas were determined from extracted ion chromatograms. The slope value, k, was determined by linear regression of the natural logarithm of the remaining percentage of the parent drug vs. incubation time curve. The in vitro half-life (in vitro t1/2) was determined from the slope value: in vitro t1/2=−(0.693)/k.
On the technique in general: Liver microsomes are a subcellular fraction often used to study metabolism.

For series [3], the target named is MCT1 (Homo sapiens (Human), UniProt P53985). Description: Assay 4: MCT1-mediated lactate transport in BT20 breast cancer cells. It is filed as cell-based. The settings on record: Table 27. An outline of the steps:
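BT20 cells loaded with BCECF-AM (30 mM DMSO stock) for 5 min at 37° C, washed and resuspended in Tyrode's Solution pH 7.4. Lactate uptake tracked via BCECF intracellular pH signal after adding 10 mM L-lactate.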

Series [4] is described as follows: Metabolic stability in rat liver microsomes (in vitro t1/2). It is filed as in vitro ADME. To be noted: for half-life at 2 µM: rat liver microsomes 0.5 mg/mL, 2 μM compound, read-out: Rat microsome t1/2, min; for Rat microsome % 60 min: rat liver microsomes. On the procedure:
as §1

The nature of series [5]: Metabolic stability in mouse liver microsomes (in vitro t1/2). In kind it is in vitro ADME. The settings on record: for half-life at 2 µM: mouse liver microsomes 0.5 mg/mL, 2 μM compound, read-out: Mouse microsome t1/2, min; for Mouse microsome % 60 min: mouse liver microsomes. On the procedure:
as §1

Sequence of MCT1 (P53985 whole entry): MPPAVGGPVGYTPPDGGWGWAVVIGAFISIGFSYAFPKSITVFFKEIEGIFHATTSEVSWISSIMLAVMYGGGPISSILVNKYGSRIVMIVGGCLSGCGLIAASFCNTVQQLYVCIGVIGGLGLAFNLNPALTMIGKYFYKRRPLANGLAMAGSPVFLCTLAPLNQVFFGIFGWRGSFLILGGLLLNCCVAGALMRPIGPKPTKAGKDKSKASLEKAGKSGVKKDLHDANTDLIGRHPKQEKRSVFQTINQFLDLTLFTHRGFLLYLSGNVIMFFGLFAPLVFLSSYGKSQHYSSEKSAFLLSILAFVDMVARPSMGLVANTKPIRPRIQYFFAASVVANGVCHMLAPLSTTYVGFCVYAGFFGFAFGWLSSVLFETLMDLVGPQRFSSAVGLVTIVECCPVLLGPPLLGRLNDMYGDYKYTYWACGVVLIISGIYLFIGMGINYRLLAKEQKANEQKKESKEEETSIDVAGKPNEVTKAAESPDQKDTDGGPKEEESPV
Sequence of MCT1 (P35613 140-385 partner): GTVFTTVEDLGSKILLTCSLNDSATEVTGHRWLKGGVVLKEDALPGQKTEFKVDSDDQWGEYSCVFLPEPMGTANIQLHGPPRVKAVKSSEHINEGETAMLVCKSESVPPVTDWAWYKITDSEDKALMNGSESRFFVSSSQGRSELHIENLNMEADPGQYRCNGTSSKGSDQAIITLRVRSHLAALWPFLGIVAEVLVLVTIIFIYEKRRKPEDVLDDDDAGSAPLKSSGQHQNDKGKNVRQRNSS
Sequence of MCT4 (O15427 whole entry, looked up): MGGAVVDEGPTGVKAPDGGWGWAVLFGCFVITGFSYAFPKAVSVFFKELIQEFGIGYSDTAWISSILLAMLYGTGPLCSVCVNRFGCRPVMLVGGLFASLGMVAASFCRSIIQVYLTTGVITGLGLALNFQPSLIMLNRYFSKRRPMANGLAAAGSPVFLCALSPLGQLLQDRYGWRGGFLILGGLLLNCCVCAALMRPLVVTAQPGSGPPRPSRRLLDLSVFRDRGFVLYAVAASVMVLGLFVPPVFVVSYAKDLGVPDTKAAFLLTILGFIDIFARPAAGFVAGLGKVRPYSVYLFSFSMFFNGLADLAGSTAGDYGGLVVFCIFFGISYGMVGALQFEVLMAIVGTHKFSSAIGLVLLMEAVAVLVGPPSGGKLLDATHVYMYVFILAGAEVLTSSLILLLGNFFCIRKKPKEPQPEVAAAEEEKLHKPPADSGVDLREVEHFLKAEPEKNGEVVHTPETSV
Sequence of MCT4 (P35613 whole entry partner, looked up): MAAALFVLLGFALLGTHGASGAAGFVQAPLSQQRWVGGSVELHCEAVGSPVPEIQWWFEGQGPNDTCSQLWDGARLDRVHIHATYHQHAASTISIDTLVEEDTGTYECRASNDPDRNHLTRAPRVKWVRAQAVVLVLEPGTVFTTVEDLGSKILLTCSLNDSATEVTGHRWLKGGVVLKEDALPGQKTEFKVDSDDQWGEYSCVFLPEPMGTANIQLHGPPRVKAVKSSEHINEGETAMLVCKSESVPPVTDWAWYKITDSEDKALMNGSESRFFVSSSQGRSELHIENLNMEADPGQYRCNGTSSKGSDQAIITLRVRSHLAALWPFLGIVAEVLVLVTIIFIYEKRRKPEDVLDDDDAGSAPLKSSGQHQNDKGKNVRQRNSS

Take `CC[C@](C)(OCc1cc(-c2cccc(OC)c2)n(Cc2ccccc2Cl)n1)C(=O)O` [Example 120, (2S)-2-([1-[(2-chlorophenyl)methyl]-5-(3-methoxyphenyl)-1H-pyrazol-3-yl]methoxy)-2-methylbutanoic Acid]: the IC50 (in general, the point on the concentration scale where inhibition reaches its midpoint) in series [1] came out at 4 nM; in series [3] it was 22000 nM. Also, the half-life at 2 µM in series [2] came to 3.3 h; in series [4] it was 0.85 h; in series [5], 6.83 h. Moreover, the “Human microsome % 60 min” value in series [2] came to 81%. Besides, in series [4], the “Rat microsome % 60 min” value amounted to 44%. Besides, in series [5], the “Mouse microsome % 60 min” value is 101%.
As to `CC[C@@](C)(OCc1cc(-c2cccc(OC)c2)n(Cc2ccccc2Cl)n1)C(=O)O` [Example 121, (2R)-2-([1-[(2-chlorophenyl)methyl]-5-(3-methoxyphenyl)-1H-pyrazol-3-yl]methoxy)-2-methylbutanoic Acid], the IC50 in series [1] came to 8 nM. In addition, in series [2], the half-life at 2 µM turned out to be 3.3 h and the “Human microsome % 60 min” value is given as 82%. The compound further yielded an IC50 in series [3] of 21000 nM. Further, in series [4], the half-life at 2 µM was 1.43 h and the “Rat microsome % 60 min” value is given as 61%. Also, in series [5], the half-life at 2 µM stood at 3.1 h and the “Mouse microsome % 60 min” value stood at 81%.
Compound `CC(C)COc1ncc(-c2cc(COC(C)(C)C(=O)O)nn2Cc2ccccc2Cl)s1` [Example 132, 2-([1-[(2-Chlorophenyl)methyl]-5-[2-(2-methylpropoxy)-1,3-thiazol-5-yl]-1H-pyrazol-3-yl]methoxy)-2-methylpropanoic acid] had an IC50 in series [1] of 8.6 nM. For the same compound, in series [2], the half-life at 2 µM amounted to 1.93 h and the “Human microsome % 60 min” value turned out to be 70%. The compound further yielded an IC50 in series [3] of 8200 nM. Also, in series [4], the half-life at 2 µM was determined as 1.87 h and the “Rat microsome % 60 min” value was 70%. Also, in series [5], the half-life at 2 µM is 1.63 h and the “Mouse microsome % 60 min” value is 64%.
With `CC(C)Cc1ncc(-c2cc(COC(C)(C)C(=O)O)nn2Cc2ccccc2Cl)o1` [Example 134, 2-([1-[(2-Chlorophenyl)methyl]-5-[2-(2-methylpropyl)-1,3-oxazol-5-yl]-1H-pyrazol-3-yl]methoxy)-2-methylpropanoic acid], in series [2], the half-life at 2 µM was 3.1 h and the “Human microsome % 60 min” value is 80%. In addition, in series [4], the half-life at 2 µM was determined as 4.4 h and the “Rat microsome % 60 min” value is listed as 85%. In series [5], the half-life at 2 µM turned out to be 1.82 h and the “Mouse microsome % 60 min” value is 72%.
As to `CCn1ncc2ccc(-c3cc(COC(C)(C)C(=O)O)nn3-c3ccccc3Cl)cc21` [Example 157, 2-([1-(2-chlorophenyl)-5-(1-ethyl-1H-indazol-6-yl)-1H-pyrazol-3-yl]methoxy)-2-methylpropanoic acid], in series [2], the half-life at 2 µM was 2.48 h and the “Human microsome % 60 min” value is on record as 78%. In series [4], the half-life at 2 µM came to 12.5 h and the “Rat microsome % 60 min” value is listed as 97%. In series [5], the half-life at 2 µM is 161 h and the “Mouse microsome % 60 min” value is on record as 102%.
`Cn1ncc2cccc(-n3nc(COC(C)(C)C(=O)O)cc3-c3cccc(OCC4CCC4)c3)c21` [Example 168, 2-([5-[3-(cyclobutylmethoxy)phenyl]-1-(1-methyl-1H-indazol-7-yl)-1H-pyrazol-3-yl]-methoxy)-2-methylpropanoic acid] came in with an IC50 in series [1] of 1.7 nM. Further, in series [2], the half-life at 2 µM was 3.12 h and the “Human microsome % 60 min” value was found to be 78%. Besides, in series [4], the half-life at 2 µM turned out to be 2.88 h and the “Rat microsome % 60 min” value worked out at 81%. Besides, in series [5], the half-life at 2 µM worked out at 3.82 h and the “Mouse microsome % 60 min” value was 81%.
As for `CCOc1cccc(-n2nc(COC(C)(C)C(=O)O)cc2-c2cc(OC)cc(OC)c2)c1` [Example 243, 2-([5-(3,5-Dimethoxyphenyl)-1-(3-ethoxyphenyl)-1H-pyrazol-3-yl]methoxy)-2-methylpropanoic acid], in series [2], the half-life at 2 µM was found to be 7.22 h and the “Human microsome % 60 min” value stood at 88%. For the same compound, the IC50 in series [3] turned out to be 78000 nM. Also, in series [4], the half-life at 2 µM was determined as 5.03 h and the “Rat microsome % 60 min” value is given as 88%. Further, in series [5], the half-life at 2 µM is 21.7 h and the “Mouse microsome % 60 min” value is listed as 97%.
